Assay results as given in ChEMBL document CHEMBL1149854, “Glycosides from the bark of Adina polycephala” (2008).

Test: Antiinflammatory activity in rat polymorphonuclear leukocytes assessed as inhibition of platelet activating factor-induced release of beta-glucuronidase at 10 uM after 15 mins
Format: functional
Details: 0.25 h
With `COc1cc(C(=O)O)ccc1O[C@@H]1O[C@H](COC(=O)c2ccc(O[C@@H]3O[C@H](COC(=O)c4cc(OC)c(O)c(OC)c4)[C@@H](O)[C@H](O)[C@H]3O)c(OC)c2)[C@@H](O)[C@H](O)[C@H]1O` the inhibition at 10 µM was 60.2%. `COc1cc(O)ccc1O[C@@H]1O[C@H](COC(=O)c2ccc(O[C@@H]3O[C@H](COC(=O)c4cc(OC)c(O)c(OC)c4)[C@@H](O)[C@H](O)[C@H]3O)c(OC)c2)[C@@H](O)[C@H](O)[C@H]1O` showed an inhibition at 10 µM of 43.6%. `COc1cc(C(=O)OC[C@H]2O[C@@H](OC(=O)c3cc(OC)c(O)c(OC)c3)[C@H](O)[C@@H](O)[C@@H]2O)ccc1O[C@@H]1O[C@H](COC(=O)c2cc(OC)c(O)c(OC)c2)[C@@H](O)[C@H](O)[C@H]1O` gave an inhibition at 10 µM of 6%. Molecule `COC(=O)C1=CO[C@@H](O[C@@H]2O[C@H](CO[C@@H]3O[C@@H](C)[C@H](O)[C@@H](O)[C@H]3O)[C@@H](O)[C@H](O)[C@H]2O)[C@@H]2C(CO)=CC[C@H]12` has an inhibition at 10 µM of 44.8%. `C[C@@H]1C(=O)O[C@H]2[C@H](O)[C@@]34[C@H]5C[C@@H](C(C)(C)C)[C@]36[C@@H](OC(=O)[C@@H]6O)O[C@@]4(C(=O)O5)[C@@]12O` [GINKOLIDE B] showed an inhibition at 10 µM of 78.8%. With `COc1cc(O[C@@H]2O[C@H](COC(=O)c3ccc(O[C@@H]4O[C@H](COC(=O)c5cc(OC)c(O)c(OC)c5)[C@@H](O)[C@H](O)[C@H]4O)c(OC)c3)[C@@H](O)[C@H](O)[C@H]2O)ccc1O` the inhibition at 10 µM was 25.2%.
